assay: gradient 5% acetonitrile 3 min, to 50% in 2 min, to 85% in 15 min, held 3 min, 100 µL/min; conditions: column: Zorbax Extend-C18 2.1 x 50 mm; eluents: water / acetonitrile, 0.1% formic acid
Summary of the method: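 Retention times of pure standards were taken from adduct peaks that were selected by computer and manually inspected. Over 3 months, mixtures of ~100 molecules were run by HPLC–quadrupole time-of-flight mass spectrometry in positive and negative ionization mode. The Zorbax Extend-C18 column (2.1 × 50 mm, 1.8 μm) ran at 100 μL/min in water and acetonitrile, each containing 0.1% formic acid, with 40 μL dead volume and 900 μL dwell volume.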

| Compound | RP-LC retention time [s] |
| --- | --- |
| Cc1cc(C(=O)NCC(C)C)c2cccc(Cl)c2n1 | 770 |
| Cc1ccn2cc(-c3cccc(S(=O)(=O)N4CC(C)CC(C)C4)c3)nc2c1 (stereo unspecified) | 784 |
| COc1cc(NC(=O)N2CCN(c3cc(-c4ccccc4)ncn3)CC2)cc(OC)c1 | 649 |
| CCc1cccc(NC(=O)C2(Cc3ccccc3)CCCCC(=O)N2)c1 (stereo unspecified) | 931 |
| CCc1ccc(NC(=O)Cn2c(N3CCOCC3)nc(CC)cc2=O)cc1 | 747 |
| COC(=O)c1cc(C)nc2c1c(=O)n(Cc1ccc(OC)cc1)c(=O)n2C | 953 |
| Cc1ccc(N2C=C(C(=O)N3CCCC3)S(=O)(=O)c3ccccc32)cc1 | 802 |
| Cn1c(=O)sc2cc(S(=O)(=O)N3CCC(C(=O)N4CCC5(CC4)OCCO5)CC3)ccc21 | 709 |
| CCCN1C(=O)COc2ccc(-c3csc(NC(=O)CC(C)C)n3)cc21 | 1000 |
| Cc1cc(C)cc(NC(=O)Cn2nc3n(c2=O)CCCC3)c1 | 674 |
| O=C(CN1C(=O)NC(c2ccc(Cl)cc2)C2=C1COC2=O)NCc1ccc(F)cc1 (stereo unspecified) | 771 |
| COCCN1C(=O)c2cc3ccsc3n2CC1(C)C(=O)NCc1ccc(Cl)cc1 (stereo unspecified) | 837 |
| COc1cc(OC)c(NC(=O)N2CCC(n3c(C(F)(F)F)nc4cccnc43)CC2)cc1Cl | 956 |
| COc1ccc(Cl)cc1S(=O)(=O)N1CCC(C(=O)NCc2ccccn2)CC1 | 594 |
| COc1ccc(C2(C(=O)N3CCC4(CC3)NCCc3c4[nH]c4ccccc34)CC2)cc1 | 681 |
| CCC(=O)Nc1ccc2c(c1)CN(C(=O)c1ccc(C)cc1)C(C(=O)N1CCCC1)C2 (stereo unspecified) | 738 |
| Cc1ccc(S(=O)(=O)N2C[C@@H](F)C[C@H]2C(=O)N2CCc3ccccc3C2)cc1 | 923 |
| CC1CN(C(=O)Cn2cc(SCC(=O)NC3CCCCC3)c3ccccc32)CC(C)O1 (stereo unspecified) | 879 |

| Compound | RP-LC retention time [s] |
| --- | --- |
| CNS(=O)(=O)c1cccnc1Nc1ccc(F)c(Cl)c1 | 973 |
| CCCN1C(=O)c2cc(S(=O)(=O)Nc3ccc(OC)cc3)ccc2Oc2cccnc21 | 1030 |
| COc1cc(OC)cc(-c2nc(-c3nnn(-c4ccccc4)c3C)no2)c1 | 1070 |
| COC(=O)CNC(=O)N1CCCN(c2nc3cc(F)ccc3n3cccc23)CC1 | 612 |
| Cc1cccc(NC(=O)CN2C(=O)CCc3cc(S(=O)(=O)N4CCCCC4C)ccc32)c1 (stereo unspecified) | 848 |
| O=C(NC1CC1)c1ccc(OCC2CCCN2C(=O)Cc2ccc(F)cc2)cc1 (stereo unspecified) | 813 |
| CCNC(=O)N1CCCC(c2cccc(C(=O)NCCCN3CCCCC3)c2)C1 (stereo unspecified) | 596 |
| Cc1ccc(NC(=O)Nc2nc(CC(=O)Nc3ccc(F)c(F)c3)cs2)cc1 | 862 |
| COC(=O)N1CCN(c2ccc(-c3noc(C(F)(F)F)n3)cn2)CC1 | 904 |
| Cc1ccc(-c2noc(Cc3nc(-c4ccc(C)cc4C)cs3)n2)cc1 | 1190 |
| COc1ccccc1CNC(=O)Cc1csc(NC(=O)Nc2cccc(Cl)c2)n1 | 837 |
| CCOc1ccc(NC(=O)Cn2c(N)nc(C)cc2=O)cc1 | 574 |
| CCC(=O)Nc1ccc2c(c1)CN(C(=O)CCc1ccccc1)C(C(=O)N1CCCC1)C2 (stereo unspecified) | 708 |
| Cc1ccc(F)cc1NC(=O)c1cc2n(n1)CCCC2 | 949 |
| COc1ccc(N2CC(c3noc(-c4cc(C)cc(C)c4)n3)CC2=O)cc1OC (stereo unspecified) | 1010 |
| Cc1ccc(Cn2nc3n(Cc4ccc(F)cc4)c(=O)c4nn(C)cc4n3c2=O)cc1 | 952 |
| CCCCNC(=O)CN1c2ccc(F)cc2-c2ccccc2S1(=O)=O | 884 |
| Cc1ccccc1C(=O)Nc1nc(-c2ccc3c(c2)N(C)C(=O)CO3)c(C)s1 | 1050 |
